Test results taken from patent US20240246981A1, “[…] DERIVATIVES AS INHIBITORS OF […]-PEPTIDE CYCLOTRANSFERASE AND […]-PEPTIDE CYCLOTRANSFERASE LIKE PROTEIN” (Boehringer Ingelheim International GmbH, priority 2022, published 2024).

Legend:
[1] = molecular target: QPCTL (Homo sapiens (Human), UniProt Q9NXS2); experiment: Assay A: biochemical QPCTL activity assay (MALDI-TOF MS); conditions: compounds of the invention, Table 2; read-out: Inhibition of QPCTL: IC50
Procedure: (§1) QPCT or QPCTL dependent conversion of N-terminal glutamine to pyroglutamate of CD47 was monitored via MALDI-TOF MS. Test compounds were dissolved in 100% DMSO and serially diluted into clear 1,536-well microtiter plates. Enzymatic reactions were set up in assay buffer containing 20 mM Tris pH 7.5, 0.1 mM TCEP, 0.01% BSA, and 0.001% Tween20. […] The plates were incubated for 10 min in a humidified incubator at 24° C. Subsequently, 2.5 μL of CD47 peptide substrate surrogate (^19[…]^33) was added to each well (final concentration: 10 μM for QPCTL/20 μM for QPCT). The plates were mixed for 30 sec at 1,000 rpm and subsequently incubated for 40 min in a humidified incubator at 24° C. […] The plates were sealed with an adhesive foil, mixed for 30 s at 1,000 rpm and stored at room temperature until preparation of the MALDI target plates. […] QPCT or QPCTL activity was monitored by calculating the ratio between product and internal standard signals followed by normalization to high (100% activity) and low (0% activity) controls. Determination of compound potencies was obtained by fitting the dose-response data to a four-parameter logistical equation.

[2] = molecular target: QPCT (Homo sapiens (Human), UniProt Q16769); experiment: Assay A: biochemical QPCT activity assay (MALDI-TOF MS); conditions: compounds of the invention, Table 2; read-out: Inhibition of QPCT: IC50
Procedure: as §1

[3] = system: SIRPα signalling induced by Raji cells; experiment: Assay B: SIRPα signalling assay using Raji cells; assay type: cell-based, human; conditions: Homo sapiens, compounds of the invention, Table 4, read-out: Inhibition of SIRα signalling induced by Raji cells: IC50
Procedure: Bioassay reagent 1 of the PathHunter Bioassay detection kit (DiscoverX 93-0001) was added to each well of the plate using a multichannel pipette followed by a 15 min incubation at room temperature. Afterwards bioassay reagent 2 was added followed by 60 min incubation at room temperature (incubation in the dark).
(§2) The analysis of the data was performed using the luminescence signal generated by beta-galactosidase in the PathHunter reporter cell line. The luminescence measurement was done using a Pherastar Multi-Mode Reader.

[4] = system: SIRPα signalling induced by A549 cells; experiment: Assay B: SIRPα signalling assay using A549 cells; assay type: cell-based, human; conditions: Homo sapiens, compounds of the invention, Table 4, read-out: Inhibition of SIRα signalling induced by A549 cells: IC50
Procedure: Two cell types are independently used: the Raji cell line (lymphoblastlike human cell line derived from B lymphocytes from a Burkitt's lymphoma patient in 1963) and A549 cells (adenocarcinomic human alveolar basal epithelial cells).
Test compounds were dissolved in 100% DMSO and serially diluted into a white 384-well microtiter cell culture plate (PerkinElmer #60076780 in case of Raji assay; PDL-coated plates Greiner #781945 in case of A549 assay). 5000 Raji cells (ATCC #CC86) or 5000 A549 cells (ATCC #CCL-185) in Assay Complete Cell Plating reagent 30 (DiscoverX 93-0563R30B) were added per well. The assay plate was incubated for 48 h at 37° C., 95% humidity and 5% CO2. 15000 reporter cells (Jurkat PathHunter SIRPα V1, DiscoverX #93-1135C19) were added to each well, and the plate was incubated for 5 h at 37° C., 95% humidity and 5% CO2. Bioassay reagent 1 of the PathHunter Bioassay detection kit (DiscoverX 93-0001) was added to each well of the plate using a multichannel pipette followed by a 15 min incubation at room temperature. Afterwards bioassay reagent 2 was added followed by 60 min incubation at room temperature (incubation in the dark).
as §2, with “Reader. Dose-response curves & IC50 data were calculated with 4-parameter sigmoidal dose response formula.” for “Reader.”

[5] = Assay C: permeability in CACO-2 cells; assay type: in vitro ADME; conditions: human, pH 7.2, compounds of the invention, Table 7
Procedure: Compounds are dissolved in appropriate solvent (like DMSO, 1-20 mM stock solutions). […] The transport solution (TL) is applied to the apical or basolateral donor side for measuring A-B or B-A permeability (3 filter replicates), respectively. Samples are collected at the start and end of experiment from the donor and at various time intervals for up to 2 hours also from the receiver side for concentration measurement by HPLC-MS/MS or scintillation counting. Sampled receiver volumes are replaced with fresh receiver solution.

QPCTL, sequence (Q9NXS2 whole entry): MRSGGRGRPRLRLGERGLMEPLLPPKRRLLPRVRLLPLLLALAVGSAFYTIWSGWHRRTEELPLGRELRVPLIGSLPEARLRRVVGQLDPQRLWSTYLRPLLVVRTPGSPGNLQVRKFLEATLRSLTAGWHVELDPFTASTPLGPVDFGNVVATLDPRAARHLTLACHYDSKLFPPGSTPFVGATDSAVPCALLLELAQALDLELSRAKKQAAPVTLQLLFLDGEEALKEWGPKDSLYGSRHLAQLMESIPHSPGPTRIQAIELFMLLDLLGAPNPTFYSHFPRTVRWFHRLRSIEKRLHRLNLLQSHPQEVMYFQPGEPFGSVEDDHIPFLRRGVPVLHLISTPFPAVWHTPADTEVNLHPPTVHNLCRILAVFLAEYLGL
QPCT, sequence (Q16769 29-361): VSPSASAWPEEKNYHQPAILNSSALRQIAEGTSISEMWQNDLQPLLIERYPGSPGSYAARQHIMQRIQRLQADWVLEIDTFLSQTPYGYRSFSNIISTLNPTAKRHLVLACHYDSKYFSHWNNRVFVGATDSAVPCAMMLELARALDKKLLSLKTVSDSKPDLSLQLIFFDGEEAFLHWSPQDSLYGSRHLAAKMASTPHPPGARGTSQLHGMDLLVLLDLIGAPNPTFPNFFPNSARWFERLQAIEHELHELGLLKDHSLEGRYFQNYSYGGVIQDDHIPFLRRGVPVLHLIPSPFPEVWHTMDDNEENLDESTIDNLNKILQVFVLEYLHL

Structure (SMILES)	IC50 [1]	IC50 [2]	IC50 [3]	IC50 [4]	Papp A→B ([5]; Caco-2, apical to basolateral)	efflux ratio ([5]; Caco-2)	Papp A→B at 2 h ([5]; Caco-2, apical to basolateral)	efflux ratio at 2 h ([5]; Caco-2)
COc1cncc(-c2cccc(C#N)c2N2CCC(c3nncn3C)CC2)c1 [compound 16]	22 nM	86 nM	625 nM	332 nM	4.5 ×10⁻⁶ cm/s	12.2		
Cn1cnnc1C1(F)CCN(c2c(C#N)cccc2-c2ccnnc2)CC1 [compound 52]	2 nM	3 nM	67 nM	16 nM	15 ×10⁻⁶ cm/s	1.1		
Cn1cnnc1C1(F)CCN(c2c(C#N)cccc2-c2cnc3nn(Cc4ccccc4)nc3c2)CC1 [compound 64]	2 nM	5 nM	61 nM	19 nM	29 ×10⁻⁶ cm/s	1.2		
Cn1cnnc1C1CCN(c2c(C#N)cccc2-c2cnc3n[nH]cc3c2)CC1 [compound 26]	5 nM	24 nM	427 nM	382 nM			0.4 ×10⁻⁶ cm/s	48.6
Cn1cnnc1C1CCN(c2c(C#N)cccc2-c2cnc3c(c2)NCCO3)CC1 [compound 24]	14 nM	56 nM	368 nM	177 nM	1 ×10⁻⁶ cm/s	34		
Cn1cnnc1C1(F)CCN(c2c(C#N)cccc2-c2cnc3nn(C(C)(C)C)c(Cl)c3c2)CC1 [compound 86]	1 nM	1 nM	13 nM	23 nM	18 ×10⁻⁶ cm/s	1.6		
Cn1cnnc1C1CCN(c2c(C#N)cccc2-c2cncc(-c3ncco3)c2)CC1 [compound 29]	3 nM	25 nM	121 nM	81 nM	3.1 ×10⁻⁶ cm/s	16.5		
Cn1cnnc1C1CCN(c2c(C#N)cccc2-c2cncc(C3CCCCO3)c2)CC1 (stereo not drawn) [compound 39]	5 nM	29 nM	133 nM	18 nM	10 ×10⁻⁶ cm/s	5.1		
Cn1cnnc1C1CCN(c2c(C#N)cccc2-c2cnc3nc(-c4cccc(Cl)c4)ccn23)CC1 [compound 28]	2 nM	12 nM	250 nM	282 nM	5.5 ×10⁻⁶ cm/s	12.4		
Cn1cnnc1C1CCN(c2c(C#N)cccc2-c2cncc3cn(Cc4ccccc4)nc23)CC1 [compound 77]	30 nM	88 nM	374 nM	1860 nM	0.7 ×10⁻⁶ cm/s	52.3		
Cn1cc2cc(-c3cccc(C#N)c3N3CCC(c4nncn4C)CC3)cnc2n1 [compound 22]	1 nM	3 nM	87 nM	114 nM	0.2 ×10⁻⁶ cm/s	50.6		
Cn1cnnc1C1CCN(c2c(C#N)cccc2-c2cncnc2)CC1 [compound 13]	15 nM	52 nM	782 nM	165 nM	1.6 ×10⁻⁶ cm/s	11.9		
Cn1cnnc1C1(F)CCN(c2c(C#N)cccc2-c2cnc3nc(C(C)(C)C)cn3c2)CC1 [compound 71]	2 nM	1 nM	49 nM	27 nM	2.7 ×10⁻⁶ cm/s	24.4		
Cn1cnnc1C1CCN(c2c(C#N)cccc2-c2cnc3nnn(C)c3c2)CC1 [compound 40]	1 nM	4 nM	214 nM	109 nM	0.1 ×10⁻⁶ cm/s	100		
Cc1cc(C)n(-c2cncc(-c3cccc(C#N)c3N3CCC(c4nncn4C)CC3)c2)n1 [compound 51]	2 nM	8 nM	148 nM	52 nM	3.4 ×10⁻⁶ cm/s	12.9		
Cn1cnnc1C1CCN(c2c(C#N)cccc2-c2cnc3nc[nH]c3c2)CC1 [compound 33]	1 nM	6 nM	501 nM	210 nM	< 0.1 ×10⁻⁶ cm/s	> 27		
Cn1cnnc1C1CCN(c2c(C#N)cccc2-c2cnc3c(c2)CCCO3)CC1 [compound 12]	12 nM	57 nM	421 nM	243 nM	2.7 ×10⁻⁶ cm/s	23.7		
Cn1cnnc1C1CCN(c2c(C#N)cccc2-c2cnc(F)c(OCC3CC3)c2)CC1 [compound 36]	1 nM	2 nM	19 nM	10 nM	34 ×10⁻⁶ cm/s	2.4		
Cn1cnnc1C1(F)CCN(c2c(C#N)cccc2-c2cnn3nc(-c4cccc(Cl)c4)ccc23)CC1 [compound 79]	2 nM	3 nM	16 nM	22 nM	40 ×10⁻⁶ cm/s	0.7		
Cn1cnnc1C1(F)CCN(c2c(C#N)cccc2-c2cnn3ncccc23)CC1 [compound 70]	5 nM	2 nM	79 nM	74 nM	14 ×10⁻⁶ cm/s	2.4		
Cn1cnnc1C1(F)CCN(c2c(C#N)cccc2-c2cnc3nc(C(C)(C)C)nn3c2)CC1 [compound 72]	1 nM	1 nM	28 nM	20 nM	3.9 ×10⁻⁶ cm/s	14.4		
Cc1ccncc1-c1cccc(C#N)c1N1CCC(c2nncn2C)CC1 [compound 8]	6 nM	31 nM	257 nM	348 nM	3.9 ×10⁻⁶ cm/s	9.5		
Cn1cnnc1C1CCN(c2c(C#N)cccc2-c2cnc(F)c(OC(F)(F)F)c2)CC1 [compound 31]	9 nM	71 nM	244 nM	135 nM	39 ×10⁻⁶ cm/s	2.2		
Cn1cnnc1C1CCN(c2c(C#N)cccc2-c2cnc(F)c(OC3CC3)c2)CC1 [compound 47]	2 nM	8 nM	77 nM	53 nM	13 ×10⁻⁶ cm/s	6		
Cc1cncc(-c2cccc(C#N)c2N2CCC(c3nncn3C)CC2)c1 [compound 11]	21 nM	128 nM	372 nM	436 nM	8.6 ×10⁻⁶ cm/s	7.7		
Cn1cnnc1C1(F)CCN(c2c(C#N)cccc2-c2cnc(=O)n(Cc3ccccc3)c2)CC1 [compound 59]	2 nM	8 nM	746 nM	619 nM	0.4 ×10⁻⁶ cm/s	34.1		
COc1cc(-c2cccc(C#N)c2N2CCC(F)(c3nncn3C)CC2)cnc1F [compound 53]	1 nM	3 nM	81 nM	22 nM	35 ×10⁻⁶ cm/s	1.3		
Cn1cnnc1C1(F)CCN(c2c(C#N)cccc2-c2cnc3nc(C(F)(F)F)cn3c2)CC1 [compound 74]	1 nM	1 nM	18 nM	26 nM	1.7 ×10⁻⁶ cm/s	14.1		
